Measurements taken from PubChem BioAssay AID2067 (The Scripps Research Institute Molecular Screening Center, 2009).
pIC50, pKi: −log10 of the molar value.

Biological target: Collagenase 3 (Homo sapiens) (UniProt P45452)
Experiment: potency against MMP13, MMP2, MMP3, MMP14 – biochemical, probe development, late stage results, selectivity assay for MMP13 inhibitor project, late-stage follow-up (AID 2067)
Conditions: recombinant MMP panel, fTHP FRET substrate cleavage, MMP-13; for pKi: Ki assay, MMP-13 Ki, Lineweaver-Burk

pIC50 | pKi | Structure (SMILES)
5.47 | 5.42 | O=c1[nH]c(SCc2ccc(Cl)cc2)nc2c1CCC2
5.55 | 5.82 | COC(=O)c1ccc(CSc2nc3c(c(=O)[nH]2)CCC3)cc1
5.61 | 6.08 | Cc1ccc(CSc2nc3c(c(=O)[nH]2)CCC3)cc1
